We go through 4 compounds from patent publication US20150175655A1 (priority 2012, published 2015).

Common to all, as to assay type: cell-based
Experiment [1] concerns genotype 3a stable HCV replicon (S52 strain) in Huh-7-derived cells. The experiment can be described thus: Stable subgenomic HCV replicon EC50, genotype 3a (Renilla luciferase). The note with it: Hepatitis C virus, 72 h, read-out: EC50 3A RLUC. Here is the method: (§1) Antiviral potency (EC50) was determined in both stable subgenomic HCV replicon cell lines and transient-transfected HCV replicon cells. The term half maximal effective concentration (EC50) refers to the concentration of a drug which induces a response halfway between the baseline and maximum after the exposure time specified below.
(§2) Stable subgenomic HCV replicons for genotype 1a, 1 b, 2a, 3a, and 4a were established in Huh-7-derived cells as described by Lohmann et al (Lohmann V, Korner F, Koch J, et al Replication of subgenomic hepatitis C virus RNAs in a hepatoma cell line. Science 1999; 285:119-3). Each stable cell line contains a bicistronic HCV replicon that encodes a humanized Renilla luciferase (hRLuc) reporter gene fused to a selectable neomycin-resistance gene, followed by an EMCV IRES and the NS3-NS5B coding region of HCV. […] Luciferase activity was measured as a marker for intracellular HCV replication levels.
(§3) The genotype 1a stable replicon was derived from the H77 HCV strain and contained adaptive mutations P1496L and S2204I. The genotype 1 b stable replicon was derived from the Cont HCV strain and contained adaptive mutations E1202G, T1280I, and K1846T. […] The genotype 3a stable replicon was derived from the S52 HCV strain and contained adaptive mutations P1121 L, A1198T and S2210I (equivalent to S2204I in genotype 1). The genotype 4a stable replicon was derived from the ED43 HCV strain and contained adaptive mutations Q1691R and S2204I. All replicon cell lines were propagated in Huh-7-derived cells and maintained in Dulbecco's modified Eagle's Medium (DMEM) supplemented with 10% fetal bovine serum (FBS) and 0.5 mg/mL G418.
(§4) To perform EC50 assays, cells from each HCV replicon were dispensed into 384-well plates. Compounds were dissolved in DMSO at a concentration of 10 mM and diluted in DMSO using an automated pipetting instrument. Three-fold serially diluted compounds were directly added to the cells using an automated instrument. […] Seventy-two hours later, cells were lysed and Renilla luciferase activity were quantified as recommended by the manufacturer (Promega-Madison, Wis.). Non-linear regression was performed to calculate EC50 values.
For orientation: A replicon is a self-replicating genome or part of one, used to study replication in cells.

Experiment [2] relates to genotype 3a transient HCV replicon (S52 strain) in Huh-7-derived cells. Description: Transient-transfected HCV replicon EC50, genotype 3a wild type. The note with it: Hepatitis C virus; transient-transfected replicon genotype 3a wild type, 72 h; read-out: EC50 3A WT.
For experiment [3], the system named is genotype 2a stable HCV replicon (JFH-1 strain) in Huh-7-derived cells. The experiment can be described thus: Stable subgenomic HCV replicon EC50, genotype 2a (Renilla luciferase). The settings on record: Hepatitis C virus, stable replicon genotype 2a, 72 h, read-out: EC50 2A RLUC. As for the experimental part: as §1, §2, §3, §4
The test system of experiment [4] is genotype 4a stable HCV replicon (ED43 strain) in Huh-7-derived cells. The experiment can be described thus: Stable subgenomic HCV replicon EC50, genotype 4a (Renilla luciferase). The settings on record: Hepatitis C virus, 72 h, read-out: EC50 4A RLUC. As for the experimental part:
as §1, §2, §3, §4

As a reminder, the EC50 is the concentration needed to bring the measured effect to its halfway point. Take `COc1ccc2nc3c(nc2c1)O[C@H]1CN(C(=O)[C@H](C(C)(C)C)NC(=O)O[C@@H]2C[C@H]2CCCCC3F)[C@H](C(=O)N[C@]2(C(=O)NS(=O)(=O)C3(C)CC3)C[C@H]2C(F)F)[C@@H]1C` (stereo partly drawn) [Example 47, (1aR,5S,8S,9S,10R,22aR)-5-tert-butyl-N-[(1R,2R)-2-(difluoromethyl)-1-{[(1-methylcyclopropyl)sulfonyl]carbamoyl}cyclopropyl]-18-fluoro-14-methoxy-9-methyl-3,6-dioxo-1,1a,3,4,5,6,9,10,18,19,20,21,22,22a-tetradecahydro-8H-7,10-methanocyclopropa[18,19][1,10,3,6]dioxadiazacyclononadecino[11,12-b]quinoxaline-8-carboxamide]: the EC50 came out at 58 nM in experiment [1], 17 nM in experiment [2], 12 nM in experiment [3] and 4.2 nM in experiment [4].
In the case of `CC[C@@H]1[C@@H]2CN(C(=O)[C@H](C(C)(C)C)NC(=O)O[C@@H]3C[C@H]3CC/C=C/C(F)(F)C3Nc4ccc(C#N)cc4N=C3O2)[C@@H]1C(=O)N[C@]1(C(=O)NS(=O)(=O)C2(C)CC2)C[C@H]1C(F)F` (stereo partly drawn) [Example 78, (1aR,5S,8S,9S,10R,19E,22aR)-5-tert-butyl-14-cyano-N-[(1R,2R)-2-(difluoromethyl)-1-{[(1-methylcyclopropyl)sulfonyl]carbamoyl}cyclopropyl]-9-ethyl-18,18-difluoro-3,6-dioxo-1,1a,3,4,5,6,9,10,17,17a,18,21,22,22a-tetradecahydro-8H-7,10-methanocyclopropa[18,19][1,10,3,6]dioxadiazacyclononadecino[11,12-b]quinoxaline-8-carboxamide], the EC50 in experiment [1] was 1120 nM; in experiment [2] it was 194 nM; in experiment [3] it was 195 nM; in experiment [4], 225 nM.
Take `CC[C@@H]1[C@@H]2CN(C(=O)[C@H](C(C)(C)C)NC(=O)O[C@]3(C)CCC[C@H]3CCCCCc3nc4ccc(OC)cc4nc3O2)[C@@H]1C(=O)N[C@]1(C(=O)NS(=O)(=O)C2(C)CC2)C[C@H]1CC(F)F` [Example 41, (3aR,7S,10S,11S,12R,24aR)-7-tert-butyl-N-[(1R,2S)-2-(2,2-difluoroethyl)-1-{[(1-methylcyclopropyl)sulfonyl]carbamoyl}cyclopropyl]-11-ethyl-16-methoxy-3a-methyl-5,8-dioxo-1,2,3,3a,5,6,7,8,11,12,20,21,22,23,24,24a-hexadecahydro-10H-9,12-methanocyclopenta[18,19][1,10,3,6]dioxadiazacyclononadecino[11,12-b]quinoxaline-10-carboxamide]: the EC50 in experiment [2] was found to be 539 nM; in experiment [3], 106 nM.
As for `C[C@@H]1[C@@H]2CN(C(=O)[C@H](C(C)(C)C)NC(=O)O[C@@H]3C[C@H]3CCCCC(F)(F)c3nc4ccc(Cl)cc4nc3O2)[C@@H]1C(=O)N[C@]1(C(=O)NS(=O)(=O)C2(C)CC2)C[C@H]1C(F)F` [Example 88, (1aR,5S,8S,9S,10R,22aR)-5-tert-butyl-14-chloro-N-[(1R,2R)-2-(difluoromethyl)-1-{[(1-methylcyclopropyl)sulfonyl]carbamoyl}cyclopropyl]-18,18-difluoro-9-methyl-3,6-dioxo-1,1a,3,4,5,6,9,10,18,19,20,21,22,22a-tetradecahydro-8H-7,10-methanocyclopropa[18,19][1,10,3,6]dioxadiazacyclononadecino[11,12-b]quinoxaline-8-carboxamide], the EC50 in experiment [1] worked out at 105 nM; in experiment [2], 35 nM; in experiment [3] it was 2.7 nM; in experiment [4], 4.1 nM.
